Reference: patent US10913727B2, “Modulators of the integrated stress pathway” (Calico Life Sciences LLC, priority 2016, dated 2021)

Tested on: HEK293T cells carrying the ATF4 luciferase reporter
Assay: ATF4-Luc assay, in vitro model of Vanishing Cell White Matter Disease (VWMD)
Assay type: cell-based
Settings: Homo sapiens, HEK-293T, 1 μg/mL tunicamycin, 7 hours, One Glo luminescence
How it was run: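 Compound at 200 nM and tunicamycin at 1 μg/mL were given together for 7 h to HEK293T cells stably transduced with an ATF4 5′-UTR-driven firefly luciferase reporter. Read-out by luminescence, reported as EC50.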

Compound | EC50
O=C(COc1ccc(Cl)c(F)c1)NC12CCC(NC(=O)c3ccc(OC(F)(F)F)cc3)(CC1)C(O)C2 (stereo not drawn) [Compound 225, N-{4-[2-(4-chloro-3-fluorophenoxy)acetamido]-2-hydroxybicyclo[2.2.2]octan-1-yl}-4-(trifluoromethoxy)benzamide] | 0.05 to 0.25 µM
O=C(COc1ccc(Cl)c(F)c1)NC12CC(NC(=O)c3ccc(CO)cn3)(C1)C2 [Compound 159, N-{3-[2-(4-chloro-3-fluorophenoxy)acetamido]bicyclo[1.1.1]pentan-1-yl}-5-(hydroxymethyl)pyridine-2-carboxamide] | 0.25 to 1 µM
O=C(COc1ccc(Cl)c(F)c1)NC12CC(NC(=O)c3ccc(OC(F)F)cn3)(C1)C2 [Compound 152, N-{3-[2-(4-chloro-3-fluorophenoxy)acetamido]bicyclo[1.1.1]pentan-1-yl}-5-(difluoromethoxy)pyridine-2-carboxamide] | 0.05 to 0.25 µM
O=C(COc1ccc(Cl)c(F)c1)NC12CCC(NC(=O)c3cnc(C(F)F)cn3)(CC1)C(F)C2 (stereo not drawn) [Compound 373, N-{4-[2-(4-chloro-3-fluorophenoxy)acetamido]-2-fluorobicyclo[2.2.2]octan-1-yl}-5-(difluoromethyl)pyrazine-2-carboxamide] | 0.25 to 1 µM
O=C(COc1ccc(Cl)c(F)c1)NC12CCC(NC(=O)c3cccc(F)c3)(CC1)[C@@H](O)C2 [Compound 488, N-{(2S)-4-[2-(4-chloro-3-fluorophenoxy)acetamido]-2-hydroxybicyclo[2.2.2]octan-1-yl}-3-fluorobenzamide] | 0.05 to 0.25 µM
Cc1cc(C(=O)NC23CCC(NC(=O)COc4ccc(Cl)c(F)c4)(CC2)CC3F)on1 (stereo not drawn) [Compound 374, N-{4-[2-(4-chloro-3-fluorophenoxy)acetamido]-2-fluorobicyclo[2.2.2]octan-1-yl}-3-methyl-1,2-oxazole-5-carboxamide] | > 2 µM
Cc1nnc(C(=O)NC23CC(NC(=O)COc4ccc(Cl)c(F)c4)(C2)C3)o1 [Compound 354, N-{3-[2-(4-chloro-3-fluorophenoxy)acetamido]bicyclo[1.1.1]pentan-1-yl}-5-methyl-1,3,4-oxadiazole-2-carboxamide] | 1 to 2 µM
O=C(COc1ccc(Cl)c(F)c1)NC12CC(NC(=O)c3cc(F)ccc3F)(C1)C2 [Compound 510, N-{3-[2-(4-chloro-3-fluorophenoxy)acetamido]bicyclo[1.1.1]pentan-1-yl}-2,5-difluorobenzamide] | 0.25 to 1 µM
O=C(COc1ccc(Cl)c(F)c1)NC12CC(Nc3ccc(C(F)(F)F)nc3)(C1)C2 [Compound 104, 2-(4-chloro-3-fluorophenoxy)-N-(3-{[6-(trifluoromethyl)pyridin-3-yl]amino}bicyclo[1.1.1]pentan-1-yl)acetamide] | 0.25 to 1 µM
O=C(COc1ccc(Cl)c(F)c1)NC12CC(Nc3cc(C(F)(F)F)ccn3)(C1)C2 [Compound 757, 2-(4-chloro-3-fluorophenoxy)-N-(3-{[4-(trifluoromethyl)pyridin-2-yl]amino}bicyclo[1.1.1]pentan-1-yl)acetamide] | > 2 µM
O=C(COc1ccc(Cl)c(F)c1)NC12CC(NC(=O)c3ccc4c(c3)OCO4)(C1)C2 [Compound 239, N-{3-[2-(4-chloro-3-fluorophenoxy)acetamido]bicyclo[1.1.1]pentan-1-yl}-2H-1,3-benzodioxole-5-carboxamide] | 0.05 to 0.25 µM
O=C(COc1ccc(Cl)c(F)c1)NC12CC(NC(=O)c3c(F)cccc3F)(C1)C2 [Compound 512, N-{3-[2-(4-chloro-3-fluorophenoxy)acetamido]bicyclo[1.1.1]pentan-1-yl}-2,6-difluorobenzamide] | > 2 µM
O=C(COc1ccc(F)c(F)c1)NC12CCC(NC(=O)c3ccc(C(F)(F)F)cn3)(CC1)C(O)C2 (stereo not drawn) [Compound 349, N-{4-[2-(3,4-difluorophenoxy)acetamido]-2-hydroxybicyclo[2.2.2]octan-1-yl}-5-(trifluoromethyl)pyridine-2-carboxamide] | 0.25 to 1 µM
CC(C)c1nc(C(=O)NC23CCC(NC(=O)COc4ccc(Cl)c(F)c4)(CC2)C(O)C3)co1 (stereo not drawn) [Compound 607, N-{4-[2-(4-chloro-3-fluorophenoxy)acetamido]-3-hydroxybicyclo[2.2.2]octan-1-yl}-2-(propan-2-yl)-1,3-oxazole-4-carboxamide] | 0.05 to 0.25 µM
CCc1nc(C(=O)NC23CC(NC(=O)COc4ccc(Cl)c(Cl)c4)(C2)C3)cs1 [Compound 698, N-{3-[2-(3,4-dichlorophenoxy)acetamido]bicyclo[1.1.1]pentan-1-yl}-2-ethyl-1,3-thiazole-4-carboxamide] | < 0.05 µM
Cc1cnc(C(=O)NC23CC(NC(=O)COc4ccc(Cl)c(F)c4)(C2)C3)s1 [Compound 469, N-{3-[2-(4-chloro-3-fluorophenoxy)acetamido]bicyclo[1.1.1]pentan-1-yl}-5-methyl-1,3-thiazole-2-carboxamide] | 0.25 to 1 µM
O=C(COc1ccc(Cl)c(F)c1)NC12CC(NC(=O)c3ncn4ccccc34)(C1)C2 [Compound 782, N-{3-[2-(4-chloro-3-fluorophenoxy)acetamido]bicyclo[1.1.1]pentan-1-yl}imidazo[1,5-a]pyridine-1-carboxamide] | > 2 µM

Compound | EC50
O=C(COc1ccc(Cl)c(F)c1)NC12CC(NC(=O)c3sccc3F)(C1)C2 [Compound 796, N-{3-[2-(4-chloro-3-fluorophenoxy)acetamido]bicyclo[1.1.1]pentan-1-yl}-3-fluorothiophene-2-carboxamide] | > 2 µM
Cc1c(C(=O)NC23CCC(NC(=O)COc4ccc(Cl)c(F)c4)(CC2)CC3O)cnn1-c1ccccc1 (stereo not drawn) [Compound 221, N-{4-[2-(4-chloro-3-fluorophenoxy)acetamido]-2-hydroxybicyclo[2.2.2]octan-1-yl}-5-methyl-1-phenyl-1H-pyrazole-4-carboxamide] | 1 to 2 µM
CC(=O)N1CCC(c2ncc(C(=O)NC34CC(NC(=O)COc5ccc(Cl)c(F)c5)(C3)C4)o2)CC1 [Compound 148, 2-(1-acetylpiperidin-4-yl)-N-{3-[2-(4-chloro-3-fluorophenoxy)acetamido]bicyclo[1.1.1]pentan-1-yl}-1,3-oxazole-5-carboxamide] | > 2 µM
O=C(COc1ccc(Cl)c(F)c1)NC12CC(NC(=O)c3ccsc3)(C1)C2 [Compound 306, N-{3-[2-(4-chloro-3-fluorophenoxy)acetamido]bicyclo[1.1.1]pentan-1-yl}thiophene-3-carboxamide] | 0.25 to 1 µM
O=C(COc1ccc(Cl)c(F)c1)NC12CC(Nc3cncc(C(F)(F)F)n3)(C1)C2 [Compound 747, 2-(4-chloro-3-fluorophenoxy)-N-(3-{[6-(trifluoromethyl)pyrazin-2-yl]amino}bicyclo[1.1.1]pentan-1-yl)acetamide] | > 2 µM
COc1ccccc1-c1cc(C(=O)NC23CCC(NC(=O)COc4ccc(Cl)c(F)c4)(CC2)C(O)C3)on1 (stereo not drawn) [Compound 397, N-{4-[2-(4-chloro-3-fluorophenoxy)acetamido]-3-hydroxybicyclo[2.2.2]octan-1-yl}-3-(2-methoxyphenyl)-1,2-oxazole-5-carboxamide] | 0.05 to 0.25 µM
CN1CCc2c(cccc2NC23CC(NC(=O)COc4ccc(Cl)c(F)c4)(C2)C3)C1 [Compound 491, 2-(4-chloro-3-fluorophenoxy)-N-{3-[(2-methyl-1,2,3,4-tetrahydroisoquinolin-5-yl)amino]bicyclo[1.1.1]pentan-1-yl}acetamide] | > 2 µM
O=C(COc1ccc(Cl)c(F)c1)NC12CC(NC(=O)c3cc4ccccn4n3)(C1)C2 [Compound 119, N-{3-[2-(4-chloro-3-fluorophenoxy)acetamido]bicyclo[1.1.1]pentan-1-yl}pyrazolo[1,5-a]pyridine-2-carboxamide] | 0.25 to 1 µM
COc1cccc(C(=O)NC23CC(NC(=O)COc4ccc(Cl)c(F)c4)(C2)C3)c1F [Compound 519, N-{3-[2-(4-chloro-3-fluorophenoxy)acetamido]bicyclo[1.1.1]pentan-1-yl}-2-fluoro-3-methoxybenzamide] | 0.05 to 0.25 µM
CS(=O)(=O)c1ccccc1C(=O)NC12CC(NC(=O)COc3ccc(Cl)c(F)c3)(C1)C2 [Compound 827, N-{3-[2-(4-chloro-3-fluorophenoxy)acetamido]bicyclo[1.1.1]pentan-1-yl}-2-(methanesulfonyl)benzamide] | > 2 µM
Cc1cc(C(=O)NC23CC(NC(=O)COc4ccc(Cl)c(F)c4)(C2)C3)nn1C [Compound 848, N-{3-[2-(4-chloro-3-fluorophenoxy)acetamido]bicyclo[1.1.1]pentan-1-yl}-1,5-dimethyl-1H-pyrazole-3-carboxamide] | < 0.05 µM
CCc1ccc(C(=O)NC23CC(NC(=O)COc4ccc(Cl)c(Cl)c4)(C2)C3)nc1 [Compound 700, N-{3-[2-(3,4-dichlorophenoxy)acetamido]bicyclo[1.1.1]pentan-1-yl}-5-ethylpyridine-2-carboxamide] | < 0.05 µM
Cc1cc(C(=O)NC23CC(NC(=O)COc4ccc5c(c4)OC(F)(F)O5)(C2)C3)on1 [Compound 377, N-(3-{2-[(2,2-difluoro-2H-1,3-benzodioxol-5-yl)oxy]acetamido}bicyclo[1.1.1]pentan-1-yl)-3-methyl-1,2-oxazole-5-carboxamide] | 0.25 to 1 µM
Cc1cnc(C(=O)NC23CCC(NC(=O)COc4ccc(Cl)c(Cl)c4)(CC2)[C@@H](O)C3)cn1 [Compound 735, N-{(3S)-4-[2-(3,4-dichlorophenoxy)acetamido]-3-hydroxybicyclo[2.2.2]octan-1-yl}-5-methylpyrazine-2-carboxamide] | < 0.05 µM
O=C(COc1ccc(Cl)c(F)c1)NC12CCC(Nc3nccn4cnnc34)(CC1)[C@H](O)C2 [Compound 464, 2-(4-chloro-3-fluorophenoxy)-N-{(3R)-3-hydroxy-4-[([1,2,4]triazolo[4,3-a]pyrazin-8-yl)amino]bicyclo[2.2.2]octan-1-yl}acetamide] | > 2 µM
O=C(COc1ccc(Cl)c(F)c1)NC12CC(NC(=O)c3cc(C(=O)NC4CC(F)(F)C4)ccn3)(C1)C2 [Compound 263, N^2-{3-[2-(4-chloro-3-fluorophenoxy)acetamido]bicyclo[1.1.1]pentan-1-yl}-N^4-(3,3-difluorocyclobutyl)pyridine-2,4-dicarboxamide] | 0.25 to 1 µM
